Experimental data from ChEMBL document CHEMBL1145390, “Synthesis and preliminary biological characterization of new semisynthetic derivatives of ramoplanin” (J Med Chem, 2007).
≈ marks a conversion by molar mass, not a printed value.

Tests used:
[1] = Toxicity assessed as hemolysis in erythrocytes at 1200 mg/L; assay type: cell-based, Erythrocyte; conditions: human, read-out: Activity
[2] = Toxicity assessed as hemolysis in erythrocytes at 600 mg/L; assay type: cell-based, Erythrocyte; conditions: human, read-out: Activity
[3] = Toxicity assessed as hemolysis in erythrocytes at 300 mg/L; assay type: cell-based, Erythrocyte; conditions: human, read-out: Activity
Enterococcus faecalis [4] = assay: Antibacterial activity against Enterococcus faecalis after 24 hrs by broth microdilution method; assay type: functional; conditions: read-out: MIC
Staphylococcus aureus [5] = assay: Antibacterial activity against Staphylococcus aureus Smith after 24 hrs by broth microdilution method; assay type: functional; conditions: read-out: MIC
Staphylococcus aureus [6] = assay: Antibacterial activity against methicillin-resistant Staphylococcus aureus clinical isolate after 24 hrs by broth microdilution method; assay type: functional; conditions: read-out: MIC
Staphylococcus aureus [7] = assay: Antibacterial activity against methicillin-resistant and vancomycin-intermediate resistant Staphylococcus aureus clinical isolate after 24 hrs by broth microdilution method; assay type: functional; conditions: read-out: MIC
Staphylococcus aureus [8] = assay: Antibacterial activity against vancomycin-intermediate resistant Staphylococcus aureus clinical isolate after 24 hrs by broth microdilution method; assay type: functional
Streptococcus pyogenes = assay: Antibacterial activity against Streptococcus pyogenes C203 after 24 hrs by broth microdilution method; assay type: functional; conditions: C203, 24 h, read-out: MIC
Enterococcus faecalis [9] = assay: Antibacterial activity against vancomycin A-resistant Enterococcus faecalis after 24 hrs by broth microdilution method; assay type: functional; conditions: read-out: MIC
Enterococcus faecium [10] = assay: Antibacterial activity against Enterococcus faecium after 24 hrs by broth microdilution method; assay type: functional; conditions: read-out: MIC
Enterococcus faecium [11] = assay: Antibacterial activity against vancomycin A-resistant Enterococcus faecium clinical isolate after 24 hrs by broth microdilution method; assay type: functional; conditions: read-out: MIC
Escherichia coli = assay: Antibacterial activity against Escherichia coli SKF-12140 after 24 hrs by broth microdilution method; assay type: functional; conditions: read-out: MIC
Candida albicans = assay: Antifungal activity against Candida albicans SKF-2270 after 24 hrs by broth microdilution method; assay type: functional; conditions: read-out: MIC
Staphylococcus aureus [12] = assay: Antibacterial activity against vancomycin-intermediate resistant Staphylococcus aureus clinical isolate in presence of 30% bovine serum after 24 hrs by broth microdilution method; assay type: functional
Staphylococcus aureus [13] = assay: Antibacterial activity against Staphylococcus aureus Smith in presence of 30% bovine serum after 24 hrs by broth microdilution method; assay type: functional
Enterococcus faecalis [14] = assay: Antibacterial activity against vancomycin-resistant Enterococcus faecalis in presence of 30% bovine serum after 24 hrs by broth microdilution method; assay type: functional
Enterococcus faecium [15] = assay: Antibacterial activity against vancomycin A-resistant Enterococcus faecium clinical isolate in presence of 30% bovine serum after 24 hrs by broth microdilution method; assay type: functional
[16] = Toxicity assessed as hemolysis in erythrocytes at 180 mg/L; assay type: cell-based, Erythrocyte; conditions: human, erythrocytes; read-out: Activity
[17] = Toxicity assessed as hemolysis in erythrocytes at 90 mg/L; assay type: cell-based, Erythrocyte; conditions: human, erythrocytes; read-out: Activity
[18] = Toxicity assessed as hemolysis in erythrocytes at 400 mg/L; assay type: cell-based, Erythrocyte; conditions: human, read-out: Activity
[19] = Toxicity assessed as hemolysis in erythrocytes at 200 mg/L; assay type: cell-based, Erythrocyte; conditions: human, read-out: Activity
[20] = Toxicity assessed as hemolysis in erythrocytes at 100 mg/L; assay type: cell-based, Erythrocyte; conditions: human, read-out: Activity

SMILES | hemolysis at 1200 mg/L [1] [%] | hemolysis at 600 mg/L [2] [%] | hemolysis at 300 mg/L [3] [%] | MIC (Enterococcus faecalis [4]) [µg/mL] | MIC (Staphylococcus aureus [5]) [µg/mL] | MIC (Staphylococcus aureus [6]) [µg/mL] | MIC (Staphylococcus aureus [7]) [µg/mL] | MIC (Staphylococcus aureus [8]) [µg/mL] | MIC (Streptococcus pyogenes) [µg/mL] | MIC (Enterococcus faecalis [9]) [µg/mL] | MIC (Enterococcus faecium [10]) [µg/mL] | MIC (Enterococcus faecium [11]) [µg/mL] | MIC (Escherichia coli) [µg/mL] | MIC (Candida albicans) [µg/mL] | MIC (Staphylococcus aureus [12]) [µg/mL] | MIC (Staphylococcus aureus [13]) [µg/mL] | MIC (Enterococcus faecalis [14]) [µg/mL] | MIC (Enterococcus faecium [15]) [µg/mL] | further results
CCc1ccccc1CC(=O)N[C@@H](CC(N)=O)C(=O)N[C@@H]1C(=O)N[C@H](c2ccc(O)cc2)C(=O)N[C@H](CCCN)C(=O)N[C@H]([C@@H](C)O)C(=O)N[C@@H](c2ccc(O)cc2)C(=O)N[C@H](c2ccc(O)cc2)C(=O)N[C@@H]([C@H](C)O)C(=O)N[C@@H](Cc2ccccc2)C(=O)N[C@H](CCCN)C(=O)N[C@@H](c2ccc(O[C@H]3O[C@H](CO)[C@@H](O)[C@H](O)[C@@H]3O[C@H]3O[C@H](CO)[C@@H](O)[C@H](O)[C@@H]3O)cc2)C(=O)N[C@H]([C@@H](C)O)C(=O)N[C@@H](c2ccc(O)cc2)C(=O)NCC(=O)N[C@@H](CC(C)C)C(=O)N[C@H](C)C(=O)N[C@@H](c2ccc(O)c(Cl)c2)C(=O)O[C@@H]1C(N)=O | 76 | 1 | 1 | – | – | – | – | – | – | – | – | – | – | – | – | – | – | – | –
CC(C)C[C@@H]1NC(=O)CNC(=O)[C@H](c2ccc(O)cc2)NC(=O)[C@@H]([C@@H](C)O)NC(=O)[C@H](c2ccc(O[C@H]3O[C@H](CO)[C@@H](O)[C@H](O)[C@@H]3O[C@H]3O[C@H](CO)[C@@H](O)[C@H](O)[C@@H]3O)cc2)NC(=O)[C@@H](CCCN)NC(=O)[C@H](Cc2ccccc2)NC(=O)[C@H]([C@@H](C)O)NC(=O)[C@@H](c2ccc(O)cc2)NC(=O)[C@H](c2ccc(O)cc2)NC(=O)[C@@H](C(C)C)NC(=O)[C@@H](CCCN)NC(=O)[C@@H](c2ccc(O)cc2)NC(=O)[C@@H](CNC(=O)[C@H](CC(N)=O)NC(=O)Cc2ccccc2[N+](=O)[O-])[C@@H](C(N)=O)OC(=O)[C@H](c2ccc(O)c(Cl)c2)NC(=O)[C@@H](C)NC1=O | 0 | 0 | 1 | 2 (≈ 0.771 µM) | 0.5 (≈ 0.193 µM) | 1 (≈ 0.386 µM) | 4 (≈ 1.54 µM) | 2 (≈ 0.771 µM) | ≤ 0.125 | 1 (≈ 0.386 µM) | 4 (≈ 1.54 µM) | 2 (≈ 0.771 µM) | > 128 | > 128 | 4 | 1 | 2 | 8 | –
Cc1cc(C)cc(CC(=O)N[C@@H](CC(N)=O)C(=O)NC[C@@H]2C(=O)N[C@H](c3ccc(O)cc3)C(=O)N[C@H](CCCN)C(=O)N[C@H](C(C)C)C(=O)N[C@@H](c3ccc(O)cc3)C(=O)N[C@H](c3ccc(O)cc3)C(=O)N[C@@H]([C@@H](C)O)C(=O)N[C@@H](Cc3ccccc3)C(=O)N[C@H](CCCN)C(=O)N[C@@H](c3ccc(O[C@H]4O[C@H](CO)[C@@H](O)[C@H](O)[C@@H]4O[C@H]4O[C@H](CO)[C@@H](O)[C@H](O)[C@@H]4O)cc3)C(=O)N[C@H]([C@@H](C)O)C(=O)N[C@@H](c3ccc(O)cc3)C(=O)NCC(=O)N[C@@H](CC(C)C)C(=O)N[C@H](C)C(=O)N[C@@H](c3ccc(O)c(Cl)c3)C(=O)O[C@@H]2C(N)=O)c1 | 87 | 18 | 0 | ≤ 0.125 | ≤ 0.125 | ≤ 0.125 | 1 (≈ 0.388 µM) | 0.5 (≈ 0.194 µM) | ≤ 0.125 | – | 0.25 (≈ 0.097 µM) | ≤ 0.125 | > 128 | > 128 | 4 | 1 | 1 | 2 | –
Cc1cccc(CC(=O)N[C@@H](CC(N)=O)C(=O)NC[C@@H]2C(=O)N[C@H](c3ccc(O)cc3)C(=O)N[C@H](CCCN)C(=O)N[C@H](C(C)C)C(=O)N[C@@H](c3ccc(O)cc3)C(=O)N[C@H](c3ccc(O)cc3)C(=O)N[C@@H]([C@@H](C)O)C(=O)N[C@@H](Cc3ccccc3)C(=O)N[C@H](CCCN)C(=O)N[C@@H](c3ccc(O[C@H]4O[C@H](CO)[C@@H](O)[C@H](O)[C@@H]4O[C@H]4O[C@H](CO)[C@@H](O)[C@H](O)[C@@H]4O)cc3)C(=O)N[C@H]([C@@H](C)O)C(=O)N[C@@H](c3ccc(O)cc3)C(=O)NCC(=O)N[C@@H](CC(C)C)C(=O)N[C@H](C)C(=O)N[C@@H](c3ccc(O)c(Cl)c3)C(=O)O[C@@H]2C(N)=O)c1 | 5 | 0 | 0 | 0.25 (≈ 0.0976 µM) | ≤ 0.125 | 0.25 (≈ 0.0976 µM) | 2 (≈ 0.781 µM) | 1 (≈ 0.39 µM) | ≤ 0.125 | ≤ 0.125 | 0.5 (≈ 0.195 µM) | 0.5 (≈ 0.195 µM) | > 128 | > 128 | 4 | 1 | 1 | 4 | –
CC(C)C[C@@H]1NC(=O)CNC(=O)[C@H](c2ccc(O)cc2)NC(=O)[C@@H]([C@@H](C)O)NC(=O)[C@H](c2ccc(O[C@H]3O[C@H](CO)[C@@H](O)[C@H](O)[C@@H]3O[C@H]3O[C@H](CO)[C@@H](O)[C@H](O)[C@@H]3O)cc2)NC(=O)[C@@H](CCCN)NC(=O)[C@H](Cc2ccccc2)NC(=O)[C@H]([C@@H](C)O)NC(=O)[C@@H](c2ccc(O)cc2)NC(=O)[C@H](c2ccc(O)cc2)NC(=O)[C@@H](C(C)C)NC(=O)[C@@H](CCCN)NC(=O)[C@@H](c2ccc(O)cc2)NC(=O)[C@@H](CNC(=O)[C@H](CC(N)=O)NC(=O)Cc2ccccc2C(F)(F)F)[C@@H](C(N)=O)OC(=O)[C@H](c2ccc(O)c(Cl)c2)NC(=O)[C@@H](C)NC1=O | 51 | 5 | 3 | ≤ 0.125 | ≤ 0.125 | ≤ 0.125 | 2 (≈ 0.764 µM) | 1 (≈ 0.382 µM) | ≤ 0.125 | – | 0.5 (≈ 0.191 µM) | 0.25 (≈ 0.0956 µM) | > 128 | > 128 | 4 | 1 | 0.5 | 2 | –
CCCCCCCC(=O)N[C@@H](CC(N)=O)C(=O)NC[C@@H]1C(=O)N[C@H](c2ccc(O)cc2)C(=O)N[C@H](CCCN)C(=O)N[C@H](C(C)C)C(=O)N[C@@H](c2ccc(O)cc2)C(=O)N[C@H](c2ccc(O)cc2)C(=O)N[C@@H]([C@@H](C)O)C(=O)N[C@@H](Cc2ccccc2)C(=O)N[C@H](CCCN)C(=O)N[C@@H](c2ccc(O[C@H]3O[C@H](CO)[C@@H](O)[C@H](O)[C@@H]3O[C@H]3O[C@H](CO)[C@@H](O)[C@H](O)[C@@H]3O)cc2)C(=O)N[C@H]([C@@H](C)O)C(=O)N[C@@H](c2ccc(O)cc2)C(=O)NCC(=O)N[C@@H](CC(C)C)C(=O)N[C@H](C)C(=O)N[C@@H](c2ccc(O)c(Cl)c2)C(=O)O[C@@H]1C(N)=O.Cl | – | – | – | 0.125 | 0.125 | 0.25 | 2 | 1 | 0.06 | 0.125 | 0.125 | < 0.06 | > 128 | > 128 | 2 | 1 | 1 | 1 | hemolysis at 180 mg/L [16]: 16%; hemolysis at 90 mg/L [17]: 0%; hemolysis at 400 mg/L [18]: 59%; hemolysis at 200 mg/L [19]: 5%; hemolysis at 100 mg/L [20]: 0%
Cc1cccc(C)c1CC(=O)N[C@@H](CC(N)=O)C(=O)NC[C@@H]1C(=O)N[C@H](c2ccc(O)cc2)C(=O)N[C@H](CCCN)C(=O)N[C@H](C(C)C)C(=O)N[C@@H](c2ccc(O)cc2)C(=O)N[C@H](c2ccc(O)cc2)C(=O)N[C@@H]([C@@H](C)O)C(=O)N[C@@H](Cc2ccccc2)C(=O)N[C@H](CCCN)C(=O)N[C@@H](c2ccc(O[C@H]3O[C@H](CO)[C@@H](O)[C@H](O)[C@@H]3O[C@H]3O[C@H](CO)[C@@H](O)[C@H](O)[C@@H]3O)cc2)C(=O)N[C@H]([C@@H](C)O)C(=O)N[C@@H](c2ccc(O)cc2)C(=O)NCC(=O)N[C@@H](CC(C)C)C(=O)N[C@H](C)C(=O)N[C@@H](c2ccc(O)c(Cl)c2)C(=O)O[C@@H]1C(N)=O | 43 | 13 | 0 | ≤ 0.125 | ≤ 0.125 | ≤ 0.125 | 1 (≈ 0.388 µM) | 0.25 (≈ 0.097 µM) | ≤ 0.125 | – | 0.5 (≈ 0.194 µM) | 0.25 (≈ 0.097 µM) | > 128 | > 128 | 2 | 0.5 | 1 | 4 | –
